Reference: patent US8883771B2, “Bivalent inhibitors of IAP proteins and therapeutic methods using the same” (The Regents of the University of Michigan, priority 2012, dated 2014)
Where two headings read alike, the source gives them in different places.

Columns and labels:
[1] = system: MDA-MB-231 breast cancer cell line; experiment: Inhibition of cell growth in MDA-MB-231 breast cancer cell line; type: cell-based, human
[2] = system: SK-OV-3 ovarian cancer cell line; experiment: Inhibition of cell growth in SK-OV-3 ovarian cancer cell line; type: cell-based, human
[3] = target: cIAP1-BIR3 (residues 253-363) (Homo sapiens (Human), UniProt Q13490); experiment: Fluorescence polarization (FP) based competitive binding assay, cIAP1-BIR3; conditions: Smac-2F probe, read-out: Binding Affinities IC50 (nM) cIAP1 Protein
Experimental: (§1) For cIAP-1 BIR3 and cIAP-2 BIR3 assays, a fluorescently labeled Smac mimetic (Smac-2F) was used as the fluorescent probe. The Kd values of Smac-2F to cIAP-1 BIR3 and cIAP-2 BIR3 were determined by monitoring the total fluorescence polarization of mixtures composed with the fluorescent probe at a fixed concentration and proteins with increasing concentrations up to full saturation. Fluorescence polarization values were measured using the Infinite M-1000 plate reader (Tecan U.S., Research Triangle Park, N.C.) in Microfluor 2 96-well, black, round-bottom plates (Thermo Scientific). To each well, 1 nM of SMAC-2F and increasing concentrations of protein were added to a final volume of 125 μl in the assay buffer (100 mM potassium phosphate, pH 7.5, 100 μg/ml bovine γ-globulin, 0.02% sodium azide, Invitrogen, with 4% DMSO). Plates were incubated at room temperature for 1-2 hours and mixed with gentle shaking to assure equilibrium. […] Equilibrium dissociation constants (Kd) were then calculated by fitting the sigmoidal dose-dependent FP increases as a function of protein concentrations using Graphpad Prism 5.0 software (Graphpad Software, San Diego, Calif.).
(§2) Mixtures of 5 μl of the tested compounds in DMSO and 120 μl of preincubated protein/tracer complex in the assay buffer (100 mM potassium phosphate, pH 7.5, 100 μg/ml bovine γ-globulin, 0.02% sodium azide, Invitrogen) were added into assay plates and incubated at room temperature for 2 hours with gentle shaking. Final concentrations of proteins and probes were 3 nM and 1 nM, 5 nM and 1 nM for assays for cIAP-1 BIR3 and cIAP-2 BIR3, respectively. […] FP values were measured as described above. IC50 values were determined by nonlinear regression fitting of the competition curves. The Ki values of competitive inhibitors were calculated using the derived equation described previously, based upon the measured IC50 values, the Kd values of the probe to different proteins, and the concentrations of the proteins and probes in the competitive assays.

[4] = target: XIAP linker-BIR2-BIR3 (residues 120-356) (Homo sapiens (Human), UniProt P98170); experiment: Fluorescence polarization (FP) based competitive binding assay, XIAP linker-BIR2-BIR3; conditions: read-out: Binding Affinities IC50 (nM) XIAP Protein
Experimental: as §1, §2
The FP-based assay for XIAP linker-BIR2-BIR3 protein was performed with the same procedures. In this assay, a bivalent fluorescently tagged peptidic Smac mimetic (Smac-1F) was used as the fluorescent probe whose Kd value to XIAP linker-BIR2-BIR3 was determined similarly through the saturation experiments. 0.01% of Triton X-100 was added in the assay buffer to achieve stable fluorescence and polarization value of the dimeric fluorescent probe. Final protein and probe concentrations utilized in the competitive assay were 3 nM and 1 nM, respectively.

[5] = target: cIAP-2 BIR3 (residues 238-349) (Homo sapiens (Human), UniProt Q13489); experiment: Fluorescence polarization (FP) based competitive binding assay, cIAP-2 BIR3; conditions: read-out: Binding Affinities IC50 (nM) cIAP2 Protein
Experimental: as §1, §2

[6] = Homo sapiens, MDA-MB-231 breast cancer cell line
[7] = Homo sapiens, SK-OV-3 ovarian cancer cell line
[8] = Homo sapiens, MDA-MB-231, MDA-MB-231 breast cancer cell line
[9] = Homo sapiens, SK-OV-3, SK-OV-3 ovarian cancer cell line
[10] = FP competitive assay, Smac-2F probe
[11] = MDA-MB-231 breast cancer cell line
[12] = SK-OV-3 ovarian cancer cell line

Compound	IC50 [1, 8] [nM]	IC50 [2, 9] [nM]	other results
CN[C@@H](C)C(=O)N[C@H]1CN(C(=O)NCCCCCCNC(=O)N2CC[C@H]3CC[C@@H](C(=O)N[C@H]4CC[C@@H]4c4ccccc4)N3C(=O)[C@@H](NC(=O)[C@H](C)NC)C2)CC[C@H]2CCC(C(=O)N[C@H]3CC[C@@H]3c3ccccc3)N2C1=O (stereo partly shown) [Example 47]	–	–	IC50 [1, 6]: < 1000 nM; IC50 [2, 7]: < 1000 nM
CN[C@@H](C)C(=O)N[C@H]1CN(C(=O)Nc2ccc(CCc3ccc(NC(=O)N4CC[C@H]5CC[C@@H](C(=O)NC(c6ccccc6)c6ccccc6)N5C(=O)[C@@H](NC(=O)[C@H](C)NC)C4)cc3)cc2)CC[C@H]2CCC(C(=O)NC(c3ccccc3)c3ccccc3)N2C1=O (stereo partly shown) [Example 17]	< 100	–	–
CN[C@@H](C)C(=O)N[C@H]1CN(C(=O)NCCCCCCNC(=O)N2CC[C@H]3CC[C@@H](C(=O)N[C@H]4C[C@H](c5ccccc5)C4)N3C(=O)[C@@H](NC(=O)[C@H](C)NC)C2)CC[C@H]2CCC(C(=O)N[C@H]3C[C@H](c4ccccc4)C3)N2C1=O (stereo partly shown) [Example 48]	–	–	IC50 [1, 6]: < 10000 nM; IC50 [2, 7]: < 10000 nM
CNCC(=O)N[C@H]1CN(C(=O)N2CCN(C(=O)N3CC[C@H]4CC[C@@H](C(=O)NC(c5ccccc5)c5ccccc5)N4C(=O)[C@@H](NC(=O)[C@H](C)NC)C3)CC2)CC[C@H]2CCC(C(=O)NC(c3ccccc3)c3ccccc3)N2C1=O (stereo partly shown) [Example 20]	< 10000	< 10000	–
CN[C@@H](C)C(=O)N[C@H]1CN(C(=O)Oc2ccc(C(C)(C)c3ccc(OC(=O)N4CC[C@H]5CC[C@@H](C(=O)NC(c6ccccc6)c6ccccc6)N5C(=O)[C@@H](NC(=O)[C@H](C)NC)C4)cc3)cc2)CC[C@H]2CCC(C(=O)NC(c3ccccc3)c3ccccc3)N2C1=O (stereo partly shown) [Example 22]	< 100	< 1000	–
CN[C@@H](C)C(=O)N[C@H]1CN(C(=O)Nc2ccc(NC(=O)N3CC[C@H]4CC[C@@H](C(=O)N[C@@H]5C[C@H]5c5ccccc5)N4C(=O)[C@@H](NC(=O)[C@H](C)NC)C3)cc2)CC[C@H]2CC[C@@H](C(=O)N[C@@H]3C[C@H]3c3ccccc3)N2C1=O [Example 30]	< 10000	< 10000	–
CN[C@@H](C)C(=O)N[C@H]1CN(C(=O)Nc2ccc(NC(=O)N3CC[C@H]4CC[C@@H](C(=O)N[C@H]5C[C@@H]5c5ccc(C(F)(F)F)cc5)N4C(=O)[C@@H](NC(=O)[C@H](C)NC)C3)cc2)CC[C@H]2CC[C@@H](C(=O)N[C@H]3C[C@@H]3c3ccc(C(F)(F)F)cc3)N2C1=O [Example 35]	< 10000	< 10000	–
CN[C@@H](C)C(=O)N[C@H]1CN(C(=O)Nc2ccc(Cc3ccc(NC(=O)N4CC[C@H]5CC[C@@H](C(=O)N[C@@H]6CCCc7ccccc76)N5C(=O)[C@@H](NC(=O)[C@H](C)NC)C4)cc3)cc2)CC[C@H]2CCC(C(=O)N[C@@H]3CCCc4ccccc43)N2C1=O (stereo partly shown) [Example 12]	< 100	< 100	IC50 [3]: < 100 nM; IC50 ([4]; FP competitive assay, Smac-1F probe): < 10 nM; IC50 [5, 10]: < 100 nM
CN[C@@H](C)C(=O)N[C@H]1CN(C(=O)NCCCCCCNC(=O)N2CC[C@H]3CC[C@@H](C(=O)NC4Cc5ccccc5C4)N3C(=O)[C@@H](NC(=O)[C@H](C)NC)C2)CC[C@H]2CCC(C(=O)NC3Cc4ccccc4C3)N2C1=O (stereo partly shown) [Example 45]	< 1000	< 1000	–
CN[C@@H](C)C(=O)N[C@H]1CN(C(=O)NCCCCCCNC(=O)N2CC[C@H]3CC[C@@H](C(=O)NCCc4ccccc4)N3C(=O)[C@@H](NC(=O)[C@H](C)NC)C2)CC[C@H]2CCC(C(=O)NCCc3ccccc3)N2C1=O (stereo partly shown) [Example 46]	< 1000	< 1000	–
CN[C@@H](C)C(=O)N[C@H]1CN(C(=O)Nc2ccc(NC(=O)N3CC[C@H]4CC[C@@H](C(=O)N[C@@H]5C[C@@H]5c5ccccc5)N4C(=O)[C@@H](NC(=O)[C@H](C)NC)C3)cc2)CC[C@H]2CC[C@@H](C(=O)N[C@@H]3C[C@@H]3c3ccccc3)N2C1=O [Example 25]	< 1000	< 1000	–
CN[C@@H](C)C(=O)N[C@H]1CN(C(=S)Nc2ccc(NC(=S)N3CC[C@H]4CC[C@@H](C(=O)NC(c5ccccc5)c5ccccc5)N4C(=O)[C@@H](NC(=O)[C@H](C)NC)C3)cc2)CC[C@H]2CCC(C(=O)NC(c3ccccc3)c3ccccc3)N2C1=O (stereo partly shown) [Example 16]	< 100	–	–
CN[C@@H](C)C(=O)N[C@H]1CN(C(=O)Nc2ccc(NC(=O)N3CC[C@H]4CC[C@@H](C(=O)N[C@H]5C[C@@H]5c5ccccc5F)N4C(=O)[C@@H](NC(=O)[C@H](C)NC)C3)cc2)CC[C@H]2CC[C@@H](C(=O)N[C@H]3C[C@@H]3c3ccccc3F)N2C1=O [Example 27]	< 5000	< 5000	–
CN[C@@H](C)C(=O)N[C@H]1CN(C(=O)NCCCCCCNC(=O)N2CC[C@H]3CC[C@@H](C(=O)N[C@H]4CCCC[C@@H]4c4ccccc4)N3C(=O)[C@@H](NC(=O)[C@H](C)NC)C2)CC[C@H]2CCC(C(=O)N[C@H]3CCCC[C@@H]3c3ccccc3)N2C1=O (stereo partly shown) [Example 39]	–	–	IC50 [1, 11]: < 1000 nM; IC50 [2, 12]: < 1000 nM
CN[C@@H](C)C(=O)N[C@H]1CN(C(=O)Nc2ccc(-c3ccc(NC(=O)N4CC[C@H]5CC[C@@H](C(=O)NC(c6ccccc6)c6ccccc6)N5C(=O)[C@@H](NC(=O)[C@H](C)NC)C4)c(C)c3)cc2C)CC[C@H]2CCC(C(=O)NC(c3ccccc3)c3ccccc3)N2C1=O (stereo partly shown) [Example 15]	< 1000	< 1000	–
CN[C@@H](C)C(=O)N[C@H]1CN(S(=O)(=O)c2cccc(S(=O)(=O)N3CC[C@H]4CC[C@@H](C(=O)NC(c5ccccc5)c5ccccc5)N4C(=O)[C@@H](NC(=O)[C@H](C)NC)C3)c2)CC[C@H]2CCC(C(=O)NC(c3ccccc3)c3ccccc3)N2C1=O (stereo partly shown) [Example 23]	< 100	< 100	–
CN[C@@H](C)C(=O)N[C@H]1CN(C(=O)NCCCCCCNC(=O)N2CC[C@H]3CC[C@@H](C(=O)N[C@H]4C[C@H](c5ccccc5)C4)N3C(=O)[C@@H](NC(=O)[C@H](C)NC)C2)CC[C@H]2CCC(C(=O)N[C@H]3C[C@H](c4ccccc4)C3)N2C1=O (stereo partly shown) [Example 49]	–	–	IC50 [3]: < 1000 nM; IC50 [4]: < 1000 nM; IC50 [5, 10]: < 5000 nM
CN[C@@H](C)C(=O)N[C@H]1CN(C(=S)Nc2ccc(Cc3ccc(NC(=S)N4CC[C@H]5CC[C@@H](C(=O)NC(c6ccccc6)c6ccccc6)N5C(=O)[C@@H](NC(=O)[C@H](C)NC)C4)cc3)cc2)CC[C@H]2CCC(C(=O)NC(c3ccccc3)c3ccccc3)N2C1=O (stereo partly shown) [Example 18]	< 100	–	–
CN[C@@H](C)C(=O)N[C@H]1CN(C(=O)Nc2ccc(NC(=O)N3CC[C@H]4CC[C@@H](C(=O)N[C@@H]5C[C@@H]5c5ccccc5)N4C(=O)[C@@H](NC(=O)[C@H](C)NC)C3)cc2)CC[C@H]2CC[C@@H](C(=O)N[C@@H]3C[C@@H]3c3ccccc3)N2C1=O (stereo in doubt) [Example 26]	–	–	IC50 [1, 11]: < 1000 nM; IC50 [2, 12]: < 1000 nM
CN[C@@H](C)C(=O)N[C@H]1CN(C(=O)Nc2ccc(NC(=O)N3CC[C@H]4CC[C@@H](C(=O)N[C@H]5C[C@@H]5c5ccccc5)N4C(=O)[C@@H](NC(=O)[C@H](C)NC)C3)cc2)CC[C@H]2CC[C@@H](C(=O)N[C@H]3C[C@@H]3c3ccccc3)N2C1=O [Example 31]	< 1000	< 1000	–
CN[C@@H](C)C(=O)N[C@H]1CN(C(=O)NCCCCCCNC(=O)N2CC[C@H]3CC[C@@H](C(=O)N[C@H]4C[C@@H](c5ccccc5)C4)N3C(=O)[C@@H](NC(=O)[C@H](C)NC)C2)CC[C@H]2CCC(C(=O)N[C@H]3C[C@@H](c4ccccc4)C3)N2C1=O (stereo partly shown) [Example 50]	–	–	IC50 [3]: < 1000 nM; IC50 [4]: < 1000 nM; IC50 [5]: < 1000 nM
CN[C@@H](C)C(=O)N[C@H]1CN(C(=O)NCc2cccc(CNC(=O)N3CC[C@H]4CC[C@@H](C(=O)N[C@H]5C[C@@H]5c5ccccc5)N4C(=O)[C@@H](NC(=O)[C@H](C)NC)C3)c2)CC[C@H]2CCC(C(=O)N[C@H]3C[C@@H]3c3ccccc3)N2C1=O (stereo partly shown) [Example 38]	< 10000	< 10000	–
